Results: US20080124270A1, “Compounds Useful as Metal Chelators” (BRACCO IMAGING S.P.A., priority 2003, published 2008)

Experiments:
[1] = relaxivity r1 of the gadolinium complex; format: physicochemical; conditions: for r1: relaxivity of the compound when complexed with gadolinium
Description: (§1) One measure of a complex of a paramagnetic metal and a chelation compound is its signal enhancing effect when used as a contrast agent for MRI. The effectiveness of a paramagnetic complex (e.g., a complex including Gd (III)) in decreasing the relaxation time (T1) of the vicinal water protons is an intrinsic property called relaxivity, r1, which is given by the following equation: […]

[2] = relaxivity r1 of the gadolinium complex in Sucrose 80; format: physicochemical; conditions: relaxivity of the compound when complexed with gadolinium
Description: as §1

Compound	r1 [1]	r1 in Sucrose 80 [2]	relaxivity compared to DOTA or DO3A ([1]; when it complexes gadolinium, result in words)
O=C(O)CN1CCN(CC(=O)O)CCN(CC(=O)O)CCN(CC(=O)O)CC1 [DOTA, 1,4,7,10-tetraazacyclododecane-1,4,7,10-tetraacetic acid, reference compound]	3.5 mM⁻¹ s⁻¹	35 mM⁻¹ s⁻¹	–
CC(N1CCN(CC(=O)O)CCN(CC(=O)O)CCN(CC(=O)O)CC1)P(=O)(O)O (stereo not shown) [EPDO3A (Na), 10-(1-phosphonoethyl)-1,4,7,10-tetrazacycododecane-1,4,7-triacetic acid]	4.1 mM⁻¹ s⁻¹	64 mM⁻¹ s⁻¹	–
O=C(O)CN1CCN(CC(=O)O)CCN(CP(=O)(O)O)CCN(CC(=O)O)CC1 [MPDO3A (Na), 10-Phosphonomethyl-1,4,7,10-tetraazacyclododecane-1,4,7-triacetic acid]	4.1 mM⁻¹ s⁻¹	65 mM⁻¹ s⁻¹	surprisingly high relaxivity
